Experiment in all cases: NCI tumour cell line growth inhibition, 48 h
In assay [1] the test system is DU-145 prostate.
Assay [2] relates to BT-549 breast.
The test system of assay [3] is DLD-1 colon.
Assay [4] relates to P388/ADR leukemia.
In assay [5] the test system is M19-MEL melanoma.
Assay [6] has as its system A498 renal.
Assay [7] concerns SN12K1 renal.
For assay [8], the system named is P388 leukemia.
The test system of assay [9] is LXFL 529 NSCLC.
In assay [10] the test system is XF 498 CNS.

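Cells were grown in 96-well plates and exposed to each compound for 48 hours at five concentrations; endpoints were interpolated linearly between bracketing concentrations, or set to the highest concentration if not reached. TGI: total growth inhibition.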

Regarding `CN1Cc2cc(O)c(O)cc2C(O)C1` (stereo not drawn), the TGI in assay [1] and in assay [2] was > 100 µM each time.
Consider `COc1cc2c(cc1Oc1c(Oc3c(O)c(OC)cc4c3C(CC(C)C)N(C)CC4)c(OC)cc3c1C(CC(C)C)N(C)CC3)C(CC(C)C)N(C)CC2` (stereo not drawn), for which the TGI in assay [3] stood at 14.2 µM; in assay [4], 3.71 µM; in [5] it was 2.58 µM; in [6], 0.304 µM; in assay [7], 3.79 µM; in [8] it was 3.62 µM.
Take `CCOc1ccc(C(C)c2cc3c(cc2OC)OCO3)cc1` (stereo not drawn): the values for the TGI in assay [9], in [3] and in assay [10] were > 100 µM, 82.5 µM and 0.823 µM, respectively.
For the compound `COc1cc2cc(C(=O)N3CC(CCl)c4ccc(N(C)C)cc43)[nH]c2c(OC)c1OC` (stereo not drawn), the values for the TGI in assay [1] and in assay [2] were 0.359 µM and 1.33 µM, respectively.

The values are drawn from PubChem BioAssay (NCI).
